PubChem BioAssay AID489041 (Sanford-Burnham Center for Chemical Genomics, 2010)
Activity calls are given as the source filed them. The rule behind the calls is not given here.

These compounds were tested on HEK-293T NF-kB luciferase reporter counterscreen, luminescence (assay: inhibitors of HEK-293T NF-kB luciferase – HEK-293T cells, luminescence, counter-screen for T-cell antigen receptor NF-kB inhibitors, dose response (AID 489041)).

Structure (SMILES) | IC50
CCOc1ccc(Br)cc1C1=CC(=O)C[C@H](c2ccc(OC)cc2)C1 | 13.7 µM
CCCCCc1ccc(OCCCC[n+]2ccc(C)cc2)c(CCCCC)c1 | 5.84 µM
CN[C@H]1CCc2cc(OC)c(OC)c(OC)c2-c2ccc(OC)c(=O)cc21 | < 0.16 µM
O=C1C=CCC(/C=C/c2ccccc2)O1 (stereo not drawn) | 22.2 µM (inactive)
Cc1nc(NCc2ccco2)c2c(C)c(C)sc2n1 | 1.82 µM
CC(C)Nc1ccc(C(CC(N)=O)NC(=O)Cc2ccc(Br)cc2)cc1[N+](=O)[O-] (stereo not drawn) | 68.8 µM (inactive)
CCS(=O)(=O)c1ncc(Cl)c(C(=O)Nc2ccc(S(=O)(=O)N(C)c3ccccc3)cc2)n1 | 20.2 µM (inactive)
CCOC(=O)c1ccc(Nc2nc(N)c3cc(OC)c(OC)cc3n2)cc1 | > 80 µM (inactive)
Oc1ccc2ccccc2c1/C=N/Nc1nnc(-c2ncc[nH]2)c2ccccc12 | 0.52 µM
O=c1cc(-c2cccc(F)c2)[nH]c2ccccc12 | 1.05 µM
CSc1nccc(-c2nn(-c3ccc(C)cc3)ccc2=O)n1 | 6.22 µM
COc1cc(CC(=O)OCC(=O)c2ccc3c(c2)OCCO3)cc(OC)c1OC | 0.67 µM
CC1=CC(C)(C)N(S(=O)(=O)c2ccc(C)cc2)c2cc(C)ccc21 | 2.17 µM
Cc1cc(C(C)(C)C)cc(C)c1C[n+]1ccc2ccccc2c1 | 4.34 µM
O=C(NN=Cc1c(O)ccc2ccccc12)c1ccc2c(c1)OCO2 | 0.74 µM
Cc1cccc(N2CCN(C(=O)c3c(-c4ccccc4)noc3C)CC2)c1C | 11.1 µM
Cc1cc(C)c2nc(C)cc(N/N=C/c3ccc(O)cc3)c2c1 | 12.9 µM
Cc1[nH]n(-c2ccccc2)c(=O)c1/C=N/Nc1nncc(-c2ccccc2)n1 | 0.2 µM
CCCC(=O)Nc1nc2ccc(NC(=O)c3c(F)c(F)c(OC)c(F)c3F)cc2s1 | > 80 µM (inactive)
COCCn1c(C)cc(C2=NNC(=Nc3ccccc3F)SC2)c1C | 17.9 µM
CCOc1ccccc1NC(=O)CN(c1ccc(OC)cc1)S(=O)(=O)c1c(C)noc1C | 16.9 µM
COC(=O)c1[nH]c2c(c1C)C(=O)CC(c1cccs1)C2 (stereo not drawn) | 1.92 µM
C=C(C)C(=O)O[C@H]1C/C(C)=C\C(=O)/C=C(\C)[C@H](O)[C@@H]2OC(=O)C(=C)[C@@H]21 | 19.7 µM
CCCCn1c2c(c(=N)c3c1CCC3)CCC2 | 8.5 µM

Structure (SMILES) | IC50
CCn1ncc(C2=NOC(C(=O)NCc3ccc(Cl)cc3)C2)c1C (stereo not drawn) | 26 µM (inactive)
COc1ccc(-n2nnnc2-c2cccc(OC)c2)cc1 | 19.7 µM
CCn1c2ccccc2c2cc(NC(=O)c3cc(OC)cc(OC)c3)ccc21 | > 80 µM (inactive)
Cc1ccc(C(=O)c2cc([N+](=O)[O-])ccc2N2CCCCC2)cc1 | 4.17 µM
Cc1ccc(C(=O)N/N=C/c2ccc([N+](=O)[O-])s2)cc1 | 4.36 µM
O=C(Nc1ccc(CSc2ccccc2)cc1)c1ccc(CN2CCOCC2)cc1 | 0.34 µM
C/C(=N\NC(=O)c1ccc(Cl)c(Cl)c1)c1ccccn1 | > 80 µM (inactive)
Cc1nc2c(=O)n(C)c(=O)nc-2n(C)n1 | 1.88 µM
CCOC(=O)C1CCN(S(=O)(=O)c2c(Cl)ccc3nonc23)CC1 | 10.7 µM
C=C(C=O)C[C@@H]1C[C@H](O)C2OC3C[C@]4(C)OC5/C=C\CC6OC7C(CC=CCC6OC5CCCC4OC3CC2O1)OC1CC2OC3CC(=O)OC3C[C@@H](C)C[C@@]2(C)OC1C[C@@H]7C (stereo partly drawn) | > 80 µM (inactive)
CCCCCCCn1c2c(c(=N)c3ccccc31)CCC2 | 0.99 µM
COc1ccc(NC(=O)/C(Cl)=C(/Cl)S(=O)Cc2ccccc2)cn1 (stereo not drawn) | 8.71 µM
CCOC(=O)c1[nH]c(C)c(C(=O)Nc2cc(Cl)ccc2C)c1C | 4.39 µM
COc1cc2c(c(OC)c1OC)-c1ccc(OC)c(=O)cc1[C@@H](NC(C)=O)CC2 | < 0.16 µM
O=C(CNC(=O)c1ccco1)N=Nc1c(O)n(CCc2ccccc2)c2ccccc12 | 5.17 µM
O=C(c1ccccc1)c1nn(-c2ccc(Cl)cc2)c(=O)cc1C(F)(F)F | 5 µM
CC(Nc1ncnc2ccccc12)c1ccccc1 (stereo not drawn) | 3.28 µM
O=C(N/N=C(\c1ccccc1)c1cccnc1)c1cccc(F)c1 | > 80 µM (inactive)
CC(=O)Nc1ccc(S(=O)(=O)N2c3ccccc3C(C)=CC2(C)C)cc1 | 4.76 µM
COc1cc(-c2noc(C)c2/C=C/c2cccc([N+](=O)[O-])c2)cc(OC)c1OC | 9.59 µM
COc1ccc(C2=Nn3c(nnc3-c3ccccc3OC)SC2)cc1OC1CCCC1 | 3.68 µM
Cc1ccsc1/C=N/NC(=O)c1cc(-c2ccncc2)nc2ccccc12 | 2.94 µM
Cc1ccc(NC(=O)CSc2nc(-c3ccco3)cc(C(F)(F)F)n2)cc1C | > 80 µM (inactive)
COc1cc(C(=O)N/N=C/c2cc([N+](=O)[O-])cs2)cc(OC)c1OC | 1.91 µM
